Measured values taken from patent publication US5753655A, “1-arylsulphonyl, arylcarbonyl and arylthiocarbonyl pyridazino derivatives and methods of preparation” (Ortho Pharmaceutical Corporation, priority 1996, dated 1998).

These molecules were tested on T47D human breast carcinoma cells (assay: Ex Vivo Progestational Test: 3H-thymidine incorporation into T47-D cells). Settings: T47D, antagonist, printed with - sign, R5020 (promegestone) induced proliferation, read-out: T47D: antagonist EC50 against R5020 induced proliferation.
Assay type: cell-based
Method: Ex Vivo Progestational Test
The incorporation of ^3 H-thymidine into T47-D cells was used to test the effect of compounds on T47-D cell proliferation.
T47-D (human breast line) was used employing standard sterile techniques. Cells were maintained in RPMI 1640 medium supplemented with fetal bovine serum (10%) and insulin (0.2 I.U./ml). Cells were trypsinized and passaged using standard procedures.
Cells were plated in 96-well microtiter plates by incubation in RPMI medium (phenol red-free, insulin-free, 5% charcoal treated fetal bovine serum) at 37° C. in an atmosphere of 95% air/5% CO2. Approximately 48 hours later, spent medium was replaced by fresh medium containing test compounds dissolved in DMSO (0.1% final concentration) and the cells were incubated for approximately 22 hours. ^3 H-Thymidine was added and the incubation allowed to proceed for another 4 hours. The test was then stopped with the addition of excess unlabeled thymidine. Cells were washed free of soluble thymidine, trypsinized and harvested by standard procedures. The amount of ^3 H-thymidine incorporated into DNA was determined by liquid scintillation counting. The primary standards were promegestone, a potent synthetic progestin and RU486, an antiprogestin. Test compounds were generally screened at concentrations ranging from 0.1 to 1000 nM. A compound was considered active if it stimulated or inhibited thymidine incorporation. Results were expressed as the concentration of test compounds needed to increase proliferation 2 times over control (SC200) or the concentration needed to inhibit promegestone induced proliferation by 50% (EC50). A value less than 1000 nM was considered active.
Aspects of the application of the procedure used are described in the following: C. Christensen, D. Gunter, D. Saunders and V. Malviya, Gynecol. Oncol., 28, 25 (1987); J. Puzas, R. Drivdahl, G. Howard and D. Baylink, Proc. Soc. Exp. Biol. Med., 166, 113 (1981); and I. Keydar, L. Chen, S. Karby, F. Weiss, J. Delarea, M. Raduy, S. Chaitcik and H. Brenner, Eur. J. Cancer, 15, 659 (1979). […]

EC50 [nM] | SMILES
654 | O=S(=O)(c1ccc(I)cc1)N1CCC2CCc3cc(Cl)ccc3C2=N1 (stereo not shown) [Example 4, 7-Chloro-3,4-diazo-1,2,3,9,10,10a-hexahydro-3-(4-iodobenzenesulfonyl)phenanthrene]
495 | O=S(=O)(c1cc(Cl)ccc1Cl)N1CCC2CCc3cc(Cl)ccc3C2=N1 (stereo not shown) [Example 5, 7-Chloro-3,4-diazo-1,2,3,9,10,10a-hexahydro-3-(2,5-dichlorobenzenesulfonyl)phenanthrene]

Same assay, conditions: agonist, printed with + sign, T47D proliferation, 3H-thymidine, read-out: T47D: agonist SC200 (concentration stimulating 2fold above control)

SMILES | EC (2-fold above control) [µM]
O=S(=O)(c1ccc(I)cc1)N1CCC2CCc3c(ccc(Br)c3Br)C2=N1 (stereo not shown) [Example 3, 7,8-Dibromo-3,4-diazo-1,2,3,9,10,10a-hexahydro-3-(4-iodobenzenesulfonyl)phenanthrene] | 0.337

What follows are molecules tested against T1, rabbit uterine cytosolic progestin receptor (PR) (Oryctolagus cuniculus, UniProt P06186) (assay: Progestin Receptor Binding: competitive displacement of 3H-R5020). Settings: rabbit uterine cytosol, 4° C., 18 h, read-out: PR: concentration required to displace 50% of H3 labeled R5020 (IC50).
T1 construct: The high speed supernatant fraction is used as the receptor preparation; from tissue; host or cells: uterus of New Zealand rabbits, 200,000 G supernatant (cytosol)
T1 sequence (P06186 1-930): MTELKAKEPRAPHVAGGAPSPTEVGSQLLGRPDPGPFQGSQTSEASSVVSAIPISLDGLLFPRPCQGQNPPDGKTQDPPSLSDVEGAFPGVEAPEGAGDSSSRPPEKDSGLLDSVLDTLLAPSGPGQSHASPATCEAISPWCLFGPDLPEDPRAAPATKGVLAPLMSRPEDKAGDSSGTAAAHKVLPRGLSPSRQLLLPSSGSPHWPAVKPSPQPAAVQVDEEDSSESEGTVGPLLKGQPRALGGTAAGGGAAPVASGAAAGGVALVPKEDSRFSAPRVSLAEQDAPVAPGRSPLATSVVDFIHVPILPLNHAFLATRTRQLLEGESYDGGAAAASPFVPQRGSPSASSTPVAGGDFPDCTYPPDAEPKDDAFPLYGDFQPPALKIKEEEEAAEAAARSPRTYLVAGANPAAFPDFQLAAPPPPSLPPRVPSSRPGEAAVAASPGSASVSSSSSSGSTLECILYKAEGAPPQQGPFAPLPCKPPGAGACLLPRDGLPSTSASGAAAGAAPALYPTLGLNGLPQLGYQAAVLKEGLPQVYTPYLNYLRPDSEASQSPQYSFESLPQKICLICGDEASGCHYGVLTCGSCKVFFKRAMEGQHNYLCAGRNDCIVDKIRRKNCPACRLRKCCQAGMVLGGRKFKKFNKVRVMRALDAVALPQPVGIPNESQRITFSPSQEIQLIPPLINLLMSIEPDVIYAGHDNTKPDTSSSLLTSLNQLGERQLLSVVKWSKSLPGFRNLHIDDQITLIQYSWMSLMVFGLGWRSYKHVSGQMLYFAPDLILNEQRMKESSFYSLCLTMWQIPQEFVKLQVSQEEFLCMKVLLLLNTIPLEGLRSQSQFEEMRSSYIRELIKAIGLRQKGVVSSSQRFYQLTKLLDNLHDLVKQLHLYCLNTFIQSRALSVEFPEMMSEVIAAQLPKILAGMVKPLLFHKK
Parameters: species or system rabbit (New Zealand rabbits)
Method: Progestin Receptor Binding
The procedure used is essentially that of J. L. McGuire, C. D. Bariso and A. P. Shroff in Biochemistry 13, 319 (1974).
Uteri from New Zealand rabbits (1.5 to 2.5 kg) are placed in a cold buffer A (0.01M Tris-HCl, pH 8.0, 0.001M EDTA, 0.25M sucrose). The uteri are minced, washed and homogenized in cold buffer A. The homogenate (2 g wet tissue/mL buffer) is centrifuged at 200,000 G for 1 h at 4° C. The high speed supernatant fraction is used as the receptor preparation.
A competitive binding assay is performed by mixing ^3 H-R5020 with the receptor preparation and adding a known amount of unlabelled compound. This mixture is incubated at 4° C. for 18 h. The compounds bound to the receptor are separated from those free in solution using dextran coated charcoal and the amount of isotope bound to the receptor is determined. A depression of 20% or greater from control isotope binding is considered significant.
If there is no value reported in the T47D column that particular compound was not tested.

IC50 [nM] | SMILES
76 | O=S(=O)(c1ccc(I)cc1)N1CCC2CCCc3c(Br)cccc3C2=N1 (stereo not shown) [Example 1, 8-Bromo-3,4,4a,5,6,7-hexahydro-2-(4-iodobenzenesulfonyl)-2H-benzo[6,7]cyclohepta[1,2c]pyridazine]
10 | O=S(=O)(c1ccc(I)cc1)N1CCC2CCc3c(Br)cccc3C2=N1 (stereo not shown) [Example 2, 8-Bromo-3,4-diazo-1,2,3,9,10,10a-hexahydro-3-(4-iodobenzenesulfonyl)phenanthrene]
2.4 | O=S(=O)(c1ccc(I)cc1)N1CCC2CCc3c(ccc(Br)c3Br)C2=N1 (stereo not shown) [Example 3, 7,8-Dibromo-3,4-diazo-1,2,3,9,10,10a-hexahydro-3-(4-iodobenzenesulfonyl)phenanthrene]
8.3 | O=S(=O)(c1ccc(I)cc1)N1CCC2CCc3cc(Cl)ccc3C2=N1 (stereo not shown) [Example 4, 7-Chloro-3,4-diazo-1,2,3,9,10,10a-hexahydro-3-(4-iodobenzenesulfonyl)phenanthrene]
34 | O=S(=O)(c1cc(Cl)ccc1Cl)N1CCC2CCc3cc(Cl)ccc3C2=N1 (stereo not shown) [Example 5, 7-Chloro-3,4-diazo-1,2,3,9,10,10a-hexahydro-3-(2,5-dichlorobenzenesulfonyl)phenanthrene]

The molecules below were run on TE85 human bone cells (assay: Bone cell proliferation (TE85 cells)). Settings: average at 5 concentrations.
Assay type: cell-based
Text: A similar method was used to measure the effect of test compounds on TE85 human bone cells.
Tables 2 and 3 show several examples of the invention with molecular formulas, melting points, and activity expressed as the average increase in bone cell proliferation at 5 concentrations (CP) or as the concentration of compound in nanomoles per liter (×10^-9 M) required to displace 50% of I^125 labeled vinyl nortestosterone (VNT) from the human bone progestin receptor (BPR) (IC50). If there is no value reported in the CP column that particular compound was not tested.

SMILES | CP: average increase in bone cell proliferation at 5 concentrations
O=C(c1ccc(Cl)c(Cl)c1)N1CCC2CCc3ccccc3C2=N1 (stereo not shown) [Example 6, 3-(3,4-dichlorobenzoyl)-3,4-diazo-1,2,3,9,10,10a-hexahydrophenanthrene] | 115
O=C(c1cc(Cl)cc(Cl)c1)N1CCC2CCCc3ccccc3C2=N1 (stereo not shown) [Example 7, 2-(3,5-dichlorobenzoyl)-3,4,4a,5,6,7-hexahydro-2H-benzo[6,7]cyclohepta[1,2c]pyridazine] | 120
O=C(c1ccc(Cl)c(Cl)c1)N1CCC2CCCc3ccccc3C2=N1 (stereo not shown) [Example 9, 2-(3,4-dichlorobenzoyl)-3,4,4a,5,6,7-hexahydro-2H-benzo[6,7]cyclohepta[1,2c]pyridazine] | 123
O=C(c1ccc(F)c(F)c1)N1CCC2CCc3ccccc3C2=N1 (stereo not shown) [Example 10, 3-(3,4-difluorobenzoyl)-3,4-diazo-1,2,3,9,10,10a-hexahydrophenanthrene] | 112
O=C(c1cc(Cl)cc(Cl)c1)N1CCC2CCc3ccccc3C2=N1 (stereo not shown) [Example 11, 3-(3,5-dichlorobenzoyl)-3,4-diazo-1,2,3,9,10,10a-hexahydrophenanthrene] | 113
O=C(c1ccc(Cl)c(Cl)c1)N1CCC2COc3ccccc3C2=N1 (stereo not shown) [Example 12, 3-(3,4-dichlorobenzoyl)-3,4-diazo-9-oxa-1,2,3,9,10,10a-hexahydrophenanthren] | 107
S=C(c1cc(Cl)cc(Cl)c1)N1CCC2CCCc3ccccc3C2=N1 (stereo not shown) [Example 15, 2-(3,5-dichlorothiobenzoyl)-3,4,4a,5,6,7-hexahydro-2H-benzo[6,7]cyclohepta[1,2c]pyridazine] | 109
Fc1ccc(C(=S)N2CCC3CCCc4ccccc4C3=N2)cc1F (stereo not shown) [Example 16, 2-(3,4-difluorothiobenzoyl)-3,4,4a,5,6,7-hexahydro-2H-benzo[6,7]cyclohepta[1,2c]pyridazine] | 111
S=C(c1ccc(Cl)c(Cl)c1)N1CCC2CCCc3ccccc3C2=N1 (stereo not shown) [Example 17, 2-(3,4-dichlorothiobenzoyl)-3,4,4a,5,6,7-hexahydro-2H-benzo[6,7]cyclohepta[1,2c]pyridazine] | 115
S=C(c1ccc(Cl)c(Cl)c1)N1CCC2CCc3ccccc3C2=N1 (stereo not shown) [Example 19, 3-(3,4-dichlorothiobenzoyl)-3,4-diazo-1,2,3,9,10,10a-hexahydrophenanthrene] | 87
S=C(c1cc(Cl)cc(Cl)c1)N1CCC2CCc3ccccc3C2=N1 (stereo not shown) [Example 20, 3-(3,5-dichlorothiobenzoyl)-3,4-diazo-1,2,3,9,10,10a-hexahydrophenanthrene] | 103
